Columns and labels:
[1] = molecular target: T1, unphosphorylated c-FMS kinase (uFMS, Seq. ID no. 1) (Homo sapiens, UniProt P07333); experiment: uFMS kinase enzymatic assay (pyruvate kinase/lactate dehydrogenase coupled); type: biochemical; conditions: ATP 500 μM, rate 3 to 4 h
T1 construct: purchased Millipore
T1 sequence (P07333 538-972): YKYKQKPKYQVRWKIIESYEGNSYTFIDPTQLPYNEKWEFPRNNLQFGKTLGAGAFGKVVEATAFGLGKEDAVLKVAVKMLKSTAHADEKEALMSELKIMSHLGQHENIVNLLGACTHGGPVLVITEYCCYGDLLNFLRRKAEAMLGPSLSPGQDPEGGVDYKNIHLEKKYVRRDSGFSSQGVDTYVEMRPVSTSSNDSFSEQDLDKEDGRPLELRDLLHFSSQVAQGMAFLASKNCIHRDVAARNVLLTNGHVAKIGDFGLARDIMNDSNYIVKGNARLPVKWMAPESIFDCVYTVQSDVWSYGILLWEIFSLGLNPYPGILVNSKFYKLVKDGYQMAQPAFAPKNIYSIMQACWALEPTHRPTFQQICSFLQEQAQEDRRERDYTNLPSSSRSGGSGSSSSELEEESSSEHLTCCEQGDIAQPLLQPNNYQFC
Experimental: uFMS Kinase (Seq. ID No. 1) Assay
Activity of unphosphorylated c-FMS kinase (uFMS, Seq. ID no. 1) was determined by following the production of ADP from the FMS kinase reaction with ATP and poly E4Y as substrates through coupling with the pyruvate kinase/lactate dehydrogenase system (e.g., Schindler et al. Science (2000) 289: 1938-1942). In this assay, the oxidation of NADH (thus the decrease at A340 nm) was continuously monitored spectrophometrically. The reaction mixture (100 μL) contained FMS (purchased from Millipore) (10 nM), polyE4Y (1 mg/mL), MgCl2 (10 mM), pyruvate kinase (4 units), lactate dehydrogenase (0.7 units), phosphoenol pyruvate (1 mM), NADH (0.28 mM) and ATP (500 μM) in 90 mM Tris buffer containing 0.2% octyl-glucoside and 1% DMSO, pH 7.5. The inhibition reaction was started by mixing serial diluted test compound with the above reaction mixture. The absorption at 340 nm was monitored continuously for 4 hours at 30° C. on Synergy 2 plate reader. The reaction rate was calculated using the 3 to 4 h time frame. Percent inhibition was obtained by comparison of reaction rate with that of a control (i.e. in the absence of test compound). IC50 values were calculated from a series of percent inhibition values determined at a range of inhibitor concentrations using software routines as implemented in the GraphPad Prism software package.

[2] = molecular target: T2, unphosphorylated c-KIT kinase (uKIT, Seq. ID no. 2) (Homo sapiens, UniProt P10721); experiment: uKit kinase enzymatic assay (pyruvate kinase/lactate dehydrogenase coupled); type: biochemical; conditions: ATP 2000 μM, rate 3 to 4 h
T2 construct: uKit with N-terminal GST fusion used for screening
T2 sequence (P10721 with tags, fused parts or gaps): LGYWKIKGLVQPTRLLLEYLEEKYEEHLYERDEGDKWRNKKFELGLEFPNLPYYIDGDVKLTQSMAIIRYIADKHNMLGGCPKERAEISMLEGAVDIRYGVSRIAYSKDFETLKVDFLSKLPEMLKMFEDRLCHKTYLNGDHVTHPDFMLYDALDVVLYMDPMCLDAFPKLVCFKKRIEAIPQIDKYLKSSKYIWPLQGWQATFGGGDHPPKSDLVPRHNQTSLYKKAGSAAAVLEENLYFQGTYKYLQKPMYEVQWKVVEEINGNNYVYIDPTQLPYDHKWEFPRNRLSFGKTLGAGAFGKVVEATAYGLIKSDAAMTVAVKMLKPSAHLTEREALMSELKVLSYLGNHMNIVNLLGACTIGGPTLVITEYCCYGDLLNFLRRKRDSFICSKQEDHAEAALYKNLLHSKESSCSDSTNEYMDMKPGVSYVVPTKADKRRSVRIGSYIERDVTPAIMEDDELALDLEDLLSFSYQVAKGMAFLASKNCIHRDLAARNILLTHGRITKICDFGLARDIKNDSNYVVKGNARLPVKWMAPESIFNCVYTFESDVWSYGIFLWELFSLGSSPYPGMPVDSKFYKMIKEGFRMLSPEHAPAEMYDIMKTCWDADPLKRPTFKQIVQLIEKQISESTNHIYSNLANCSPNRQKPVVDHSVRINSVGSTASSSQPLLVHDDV
Experimental: uKit Kinase (Seq. ID No. 2) Assay
Activity of unphosphorylated c-KIT kinase (uKIT, Seq. ID no. 2) was determined by following the production of ADP from the KIT kinase reaction with ATP and poly E4Y as substrates through coupling with the pyruvate kinase/lactate dehydrogenase system (e.g., Schindler et al. Science (2000) 289: 1938-1942). In this assay, the oxidation of NADH (thus the decrease at A340 nm) was continuously monitored spectrophometrically. The reaction mixture (100 μl) contained unphosphorylated KIT (12 nM), polyE4Y (1 mg/mL), MgCl2 (10 mM), pyruvate kinase (4 units), lactate dehydrogenase (0.7 units), phosphoenol pyruvate (1 mM), and NADH (0.28 mM) and ATP (2000 μM) in 90 mM Tris buffer containing 0.2% octyl-glucoside and 1% DMSO, pH 7.5. The inhibition reaction was started by mixing serial diluted test compound with the above reaction mixture. The absorption at 340 nm was monitored continuously for 4 hours at 30° C. on Synergy 2 plate reader (BioTech). Reaction rates around 3 to 4 h time frame were used to calculate % inhibitions, from which IC50 values were generated.

[3] = molecular target: T3, unphosphorylated PDGFRβ kinase (uPDGFRβ, Seq. ID No. 3) (Homo sapiens, UniProt P09619); experiment: uPDGFRβ kinase enzymatic assay (pyruvate kinase/lactate dehydrogenase coupled); type: biochemical; conditions: ATP 500 μM, rate 1.5 to 2.5 h
T3 construct: purchased DeCode
T3 sequence (P09619 557-1106): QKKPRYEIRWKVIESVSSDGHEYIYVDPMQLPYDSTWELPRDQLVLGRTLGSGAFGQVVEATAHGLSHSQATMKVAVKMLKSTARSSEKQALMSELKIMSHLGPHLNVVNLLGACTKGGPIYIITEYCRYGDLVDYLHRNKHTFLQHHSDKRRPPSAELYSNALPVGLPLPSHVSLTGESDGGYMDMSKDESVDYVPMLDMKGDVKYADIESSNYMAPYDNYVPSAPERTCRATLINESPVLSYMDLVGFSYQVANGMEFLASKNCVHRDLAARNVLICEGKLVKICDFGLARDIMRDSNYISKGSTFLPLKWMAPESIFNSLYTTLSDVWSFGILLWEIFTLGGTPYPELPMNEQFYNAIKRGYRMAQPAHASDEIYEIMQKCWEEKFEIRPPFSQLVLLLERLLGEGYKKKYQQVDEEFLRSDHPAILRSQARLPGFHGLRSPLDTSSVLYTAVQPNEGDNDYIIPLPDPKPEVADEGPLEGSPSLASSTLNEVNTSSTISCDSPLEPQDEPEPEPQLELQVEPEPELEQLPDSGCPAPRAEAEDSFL
Experimental: Unphosphorylated PDGFRβ (uPDGFRβ) Kinase (Seq. ID No. 3) Assay
Activity of unphosphorylated PDGFRβ kinase (uPDGFRβ, Seq. ID No. 3) was determined by following the production of ADP from the kinase reaction with ATP and poly E4Y as substrates through coupling with the pyruvate kinase/lactate dehydrogenase system (e.g., Schindler et al. Science (2000) 289: 1938-1942). In this assay, the oxidation of NADH (thus the decrease at A340 nm) was continuously monitored spectrophometrically. The reaction mixture (100 μL) contained PDGFRβ (DeCode, 15.7 nM), polyE4Y (2.5 mg/mL), MgCl2 (10 mM), pyruvate kinase (4 units), lactate dehydrogenase (0.7 units), phosphoenol pyruvate (1 mM) and NADH (0.28 mM) and ATP (500 μM) in a 90 mM Tris buffer containing 0.2% octyl-glucoside and 1% DMSO, at pH 7.5. The inhibition reaction was started by mixing serial diluted test compound with the above reaction mixture. The absorption at 340 nm was monitored continuously for 4 h at 30° C. on a Polarstar Optima or Synergy 2 plate reader. The reaction rate was calculated using the 1.5 to 2.5 h time frame. Percent inhibition was obtained by comparison of reaction rate with that of a control (i.e. with no test compound). IC50 values were calculated from a series of percent inhibition values determined at a range of inhibitor concentrations using software routines as implemented in the GraphPad Prism software package.

M-NFS-60 cells = experiment: M-NFS-60 cell proliferation assay (resazurin); type: cell-based; conditions: 67 h incubation
Experimental: M-NFS-60 cells (catalog #CRL-1838) were obtained from the American Type Culture Collection (ATCC, Manassas, Va.). Briefly, cells were grown in suspension in RPMI 1640 medium supplemented with 10% characterized fetal bovine serum (Invitrogen, Carlsbad, Calif.), 0.05 mM 2-mercaptoethanol, and 20 ng/mL mouse recombinant macrophage colony stimulating factor (M-CSF) at 37° C., 5% CO2, and 95% humidity. Cells were allowed to expand until reaching saturation at which point they were subcultured or harvested for assay use.
M-NFS-60 Cell Proliferation Assay
A serial dilution of test compound was dispensed into a 384-well black clear bottom plate (Corning, Corning, N.Y.). Two thousand five hundred cells were added per well in 50 μL complete growth medium. Plates were incubated for 67 h at 37° C., 5% CO2, and 95% humidity. At the end of the incubation period 10 μL of a 440 μM solution of resazurin (Sigma, St. Louis, Mo.) in PBS was added to each well and incubated for an additional 5 h at 37° C., 5% CO2, and 95% humidity. Plates were read on a Synergy2 reader (Biotek, Winooski, Vt.) using an excitation of 540 nm and an emission of 600 nm. IC50 values were calculated from a series of percent inhibition values determined at a range of inhibitor concentrations using software routines as implemented in the GraphPad Prism software package.

osteoclast precursors = experiment: Osteoclast tartrate-resistant acid phosphatase assay; type: cell-based; conditions: RANKL and M-CSF, 7-14 days, tartrate-resistant acid phosphatase activity
Experimental: Osteoclast Tartrate-Resistant Acid Phosphatase Assay
A serial dilution of test compound was dispensed into a 384-well black clear bottom plate (Nalge Nunc International, Rochester, N.Y.). Compound was diluted by the addition of DMEM media supplemented with 10% characterized fetal bovine serum (Invitrogen, Carlsbad, Calif.). Diluted compound was transferred to a 384-well black clear bottom plate. Two-thousand five hundred osteoclast precursors (Lonza, Walkersville, Md.) were added per well in growth media containing Receptor Activator of Nuclear Factor Kappa-beta ligand (RANKL) and M-CSF (R&D Systems, Minneapolis, Minn.). Plates were incubated for 7-14 days at 37 degrees Celsius, 5% CO2, and 95% humidity to allow differentiation of osteoclast precursors. At the end of the incubation period, 10 μL of supernatant from each well was transferred to a clear 384-well plate. Tartrate-resistant acid phosphatase activity in the supernatant samples was determined using an acid phosphatase assay kit (Sigma, St. Louis, Mo.). Absorbance was measured at 550 nm using a plate reader. Data was analyzed using Prism software (Graphpad, San Diego, Calif.) to calculate IC50 values.

Row | Structure (SMILES) | IC50 [1] | IC50 [2] | IC50 [3] | IC50 (M-NFS-60 cells) | IC50 (osteoclast precursors)
1 | Cc1nc(-n2nc(-c3ccc(F)cc3)[nH]c2=O)ccc1Oc1ccnc(-c2cnn(C)c2)c1 [Example 28, 3-(4-fluorophenyl)-1-(6-methyl-5-((2-(1-methyl-1H-pyrazol-4-yl)pyridin-4-yl)oxy)pyridin-2-yl)-1H-1,2,4-triazol-5(4H)-one] | ≤ 0.01 µM | 0.01 to 0.1 µM | > 1 µM | 0.01 to 0.1 µM | 0.01 to 0.1 µM
2 | Cc1cn(-c2cc(Oc3ccc(-n4nc(-c5ccc(F)cc5)[nH]c4=O)nc3C)ccn2)cn1 [Example 29, 3-(4-fluorophenyl)-1-(6-methyl-5-((2-(4-methyl-1H-imidazol-1-yl)pyridin-4-yl)oxy)pyridin-2-yl)-1H-1,2,4-triazol-5(4H)-one] | 0.01 to 0.1 µM | 0.1 to 1 µM | > 1 µM | 0.1 to 1 µM | 0.1 to 1 µM
3 | Cc1nc(-n2nc(-c3ccc(F)cc3)[nH]c2=O)ccc1Oc1ccnc(NC(=O)C2CC2)c1 [Example 32, N-(4-((6-(3-(4-fluorophenyl)-5-oxo-4,5-dihydro-1H-1,2,4-triazol-1-yl)-2-methylpyridin-3-yl)oxy)pyridin-2-yl)cyclopropanecarboxamide] | 0.01 to 0.1 µM | 0.01 to 0.1 µM | 0.1 to 1 µM | 0.1 to 1 µM | 0.1 to 1 µM
4 | Cc1nc(-n2nc(C3CCCC3)[nH]c2=O)ccc1Oc1ccnc(-c2cnn(C)c2)c1 [Example 34, 3-cyclopentyl-1-(6-methyl-5-((2-(1-methyl-1H-pyrazol-4-yl)pyridin-4-yl)oxy)pyridin-2-yl)-1H-1,2,4-triazol-5(4H)-one] | ≤ 0.01 µM | ≤ 0.01 µM | 0.01 to 0.1 µM | ≤ 0.01 µM | 0.01 to 0.1 µM
5 | Cc1nc(-n2nc(C3CC3)[nH]c2=O)ccc1Oc1ccnc(-c2cnn(C)c2)c1 [Example 35, 3-cyclopropyl-1-(6-methyl-5-((2-(1-methyl-1H-pyrazol-4-yl)pyridin-4-yl)oxy)pyridin-2-yl)-1H-1,2,4-triazol-5(4H)-one] | 0.1 to 1 µM | 0.1 to 1 µM | > 1 µM | > 1 µM | 0.1 to 1 µM
6 | Cc1nc(-n2nc(C(C)(C)C)[nH]c2=O)ccc1Oc1ccnc(-c2ccc(N3CCN(C)CC3)nc2)c1 [Example 40, 3-(tert-butyl)-1-(6-methyl-5-((6′-(4-methylpiperazin-1-yl)-[2,3′-bipyridin]-4-yl)oxy)pyridin-2-yl)-1H-1,2,4-triazol-5(4H)-one] | 0.01 to 0.1 µM | 0.1 to 1 µM | > 1 µM | 0.01 to 0.1 µM | 0.01 to 0.1 µM
7 | Cc1nc(-n2nc(C(C)(C)C)[nH]c2=O)ccc1Oc1ccnc(-c2ccnc(N3CCN(C)CC3)c2)c1 [Example 41, 3-(tert-butyl)-1-(6-methyl-5-((2′-(4-methylpiperazin-1-yl)-[2,4′-bipyridin]-4-yl)oxy)pyridin-2-yl)-1H-1,2,4-triazol-5(4H)-one] | 0.1 to 1 µM | > 1 µM | > 1 µM | > 1 µM | 0.1 to 1 µM
8 | Cc1nc(-n2nc(C(C)(C)CO)[nH]c2=O)ccc1Oc1ccnc(-c2cnn(C)c2)c1 [Example 42, 3-(1-hydroxy-2-methylpropan-2-yl)-1-(6-methyl-5-((2-(1-methyl-1H-pyrazol-4-yl)pyridin-4-yl)oxy)pyridin-2-yl)-1H-1,2,4-triazol-5(4H)-one] | 0.01 to 0.1 µM | > 1 µM | > 1 µM | > 1 µM | 0.1 to 1 µM
9 | COC(C)(C)c1nn(-c2cc(C)c(Oc3ccnc(NC(C)=O)c3)cn2)c(=O)[nH]1 [Example 44, N-(4((6-(3-(2-methoxypropan-2-yl)-5-oxo-4,5-dihydro-1H-1,2,4-triazol-1-yl)-4-methylpyridin-3-yl)oxy)pyridin-2-yl)acetamide] | 0.1 to 1 µM | 0.1 to 1 µM | 0.1 to 1 µM | 0.1 to 1 µM | 0.1 to 1 µM
10 | Cc1nc(-n2nc(C(C)(C)C)[nH]c2=O)ccc1Oc1ccnc(NC(=O)C2CC2)c1 [Example 45, N-(4-((6-(3-(tert-butyl)-5-oxo-4,5-dihydro-1H-1,2,4-triazol-1-yl)-2-methylpyridin-3-yl)oxy)pyridin-2-yl)cyclopropanecarboxamide] | 0.1 to 1 µM | > 1 µM | > 1 µM | 0.1 to 1 µM | 0.01 to 0.1 µM
